Results on 48 compounds are retold here after patent publication US10385070B2, “Chroman-spirocyclic piperidine amides as modulators of ion channels” (VERTEX PHARMACEUTICALS INCORPORATED, priority 2011, dated 2019).

Bounds are passed on as bounds.

In the assay the target is human NaV subtype, like NaV 1.7 (Homo sapiens, UniProt Q15858). Put plainly: E-VIPR optical membrane potential assay with electrical stimulation. It is filed as cell-based. Particulars: active against one or more sodium channels; assay and NaV subtype not specified for Table 3; read-out: IC50 Binned Activity Data. An excerpt: Assays for Detecting and Measuring NaV Inhibition Properties of Compound E-VIPR Optical Membrane Potential Assay Method with Electrical Stimulation
Sequence of human NaV subtype, like NaV 1.7 (Q15858 whole entry): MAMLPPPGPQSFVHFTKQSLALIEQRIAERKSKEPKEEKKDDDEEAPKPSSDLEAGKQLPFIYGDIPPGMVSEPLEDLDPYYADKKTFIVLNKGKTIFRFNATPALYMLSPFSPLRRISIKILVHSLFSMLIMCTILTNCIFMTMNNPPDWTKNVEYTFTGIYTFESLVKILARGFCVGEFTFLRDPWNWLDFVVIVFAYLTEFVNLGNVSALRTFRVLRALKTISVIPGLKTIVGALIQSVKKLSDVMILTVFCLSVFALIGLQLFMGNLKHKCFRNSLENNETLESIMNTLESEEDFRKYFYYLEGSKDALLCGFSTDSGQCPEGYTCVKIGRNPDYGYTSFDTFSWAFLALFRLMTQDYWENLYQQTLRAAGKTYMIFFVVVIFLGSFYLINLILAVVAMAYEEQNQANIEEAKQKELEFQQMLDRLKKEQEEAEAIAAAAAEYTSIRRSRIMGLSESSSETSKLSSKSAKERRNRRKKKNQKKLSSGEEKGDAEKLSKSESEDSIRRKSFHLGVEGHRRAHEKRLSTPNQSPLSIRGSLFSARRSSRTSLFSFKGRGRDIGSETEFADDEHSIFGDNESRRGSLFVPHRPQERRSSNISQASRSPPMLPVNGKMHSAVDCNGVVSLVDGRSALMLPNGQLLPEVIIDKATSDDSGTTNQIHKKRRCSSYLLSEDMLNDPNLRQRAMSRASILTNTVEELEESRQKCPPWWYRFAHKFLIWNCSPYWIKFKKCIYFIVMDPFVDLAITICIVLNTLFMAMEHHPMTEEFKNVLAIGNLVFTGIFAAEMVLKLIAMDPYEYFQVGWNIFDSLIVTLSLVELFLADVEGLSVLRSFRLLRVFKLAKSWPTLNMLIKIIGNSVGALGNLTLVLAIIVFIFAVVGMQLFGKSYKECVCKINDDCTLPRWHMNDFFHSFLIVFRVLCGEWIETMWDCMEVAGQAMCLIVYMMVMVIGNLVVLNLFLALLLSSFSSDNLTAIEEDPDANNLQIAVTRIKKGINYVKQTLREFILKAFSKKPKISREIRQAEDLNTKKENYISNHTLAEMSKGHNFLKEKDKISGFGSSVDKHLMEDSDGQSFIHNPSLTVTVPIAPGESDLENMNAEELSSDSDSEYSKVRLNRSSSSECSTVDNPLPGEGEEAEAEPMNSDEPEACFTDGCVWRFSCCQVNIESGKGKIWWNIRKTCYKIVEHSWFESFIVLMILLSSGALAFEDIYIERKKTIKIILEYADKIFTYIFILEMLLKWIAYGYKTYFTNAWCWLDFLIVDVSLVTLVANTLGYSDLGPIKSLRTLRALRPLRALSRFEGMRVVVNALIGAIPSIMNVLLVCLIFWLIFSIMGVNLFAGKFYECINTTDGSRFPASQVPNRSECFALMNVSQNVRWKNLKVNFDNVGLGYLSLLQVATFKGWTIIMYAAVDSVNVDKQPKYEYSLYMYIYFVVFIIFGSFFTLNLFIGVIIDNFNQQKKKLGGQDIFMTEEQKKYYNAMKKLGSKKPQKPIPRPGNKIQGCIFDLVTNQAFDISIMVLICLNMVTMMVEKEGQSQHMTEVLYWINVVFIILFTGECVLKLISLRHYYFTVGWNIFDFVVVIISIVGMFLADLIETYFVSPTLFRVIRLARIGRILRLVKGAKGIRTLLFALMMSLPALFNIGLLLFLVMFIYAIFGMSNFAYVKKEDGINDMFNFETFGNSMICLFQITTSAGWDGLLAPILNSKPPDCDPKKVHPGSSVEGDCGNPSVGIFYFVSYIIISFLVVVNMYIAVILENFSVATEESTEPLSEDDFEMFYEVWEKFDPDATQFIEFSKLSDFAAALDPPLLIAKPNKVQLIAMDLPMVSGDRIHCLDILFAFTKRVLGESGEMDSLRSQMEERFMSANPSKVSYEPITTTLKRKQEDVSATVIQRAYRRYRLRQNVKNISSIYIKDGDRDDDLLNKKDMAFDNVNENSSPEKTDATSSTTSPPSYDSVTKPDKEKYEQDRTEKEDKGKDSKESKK
Sodium channels are voltage-dependent proteins that can be activated by inducing membrane voltage changes by applying electric fields. The electrical stimulation instrument and methods of use are described in Ion Channel Assay Methods PCT/US01/21652, herein incorporated by reference and are referred to as E-VIPR. The instrument comprises a microtiter plate handler, an optical system for exciting the coumarin dye while simultaneously recording the coumarin and oxonol emissions, a waveform generator, a current- or voltage-controlled amplifier, and a device for inserting electrodes in well. Under integrated computer control, this instrument passes user-programmed electrical stimulus protocols to cells within the wells of the microtiter plate.
24 hours before the assay on E-VIPR, HEK cells expressing human NaV subtype, like NaV 1.7, are seeded in 384-well poly-lysine coated plates at 15,000-20,000 cells per well. Other subtypes are performed in an analogous mode in a cell line expressing the NaV of interest. HEK cells are grown in media (exact composition is specific to each cell type and NaV subtype) supplemented with 10% FBS (Fetal Bovine Serum, qualified; GibcoBRL #16140-071) and 1% Pen-Strep (Penicillin-Streptomycin; GibcoBRL #15140-122). Cells are grown in vented cap flasks, in 90% humidity and 10% CO2, to 100% confluence. They are usually split by trypsinization 1:10 or 1:20, depending on scheduling needs, and grown for 2-3 days before the next split.
100 mg/mL Pluronic F-127 (Sigma #P2443), in dry DMSO
Compound Plates: 384-well round bottom plate, e.g. Corning 384-well Polypropylene Round Bottom #3656
Cell Plates: 384-well tissue culture treated plate, e.g. Greiner #781091-1B
Bath1 buffer. Glucose 10 mM (1.8 g/L), Magnesium Chloride (Anhydrous), 1 mM (0.095 g/L), Calcium Chloride, 2 mM (0.222 g/L), HEPES 10 mM (2.38 g/L), Potassium Chloride, 4.5 mM (0.335 g/L), Sodium Chloride 160 mM (9.35 g/L).
Hexyl Dye Solution: Bath1 Buffer+0.5% β-cyclodextrin (make this prior to use, Sigma #C4767), 8 μM CC2-DMPE+2.5 μM DiSBAC6(3). To make the solution Add volume of 10% Pluronic F127 stock equal to volumes of CC2-DMPE+DiSBAC6(3). The order of preparation is first mix Pluronic and CC2-DMPE, then add DiSBAC6(3) while vortexing, then add Bath1+β-Cyclodextrin.
1) Pre-spot compounds (in neat DMSO) into compound plates. Vehicle control (neat DMSO), the positive control (20 mM DMSO stock tetracaine, 125 μM final in assay) and test compounds are added to each well at 160× desired final concentration in neat DMSO. Final compound plate volume will be 80 μL (80-fold intermediate dilution from 1 μL DMSO spot; 160-fold final dilution after transfer to cell plate). Final DMSO concentration for all wells in assay is 0.625%.
2) Prepare Hexyl Dye Solution.
3) Prepare cell plates. On the day of the assay, medium is aspirated and cells are washed three times with 100 μL of Bath1 Solution, maintaining 25 μL residual volume in each well.
4) Dispense 25 μL per well of Hexyl Dye Solution into cell plates. Incubate for 20-35 minutes at room temp or ambient conditions.
5) Dispense 80 μL per well of Bath1 into compound plates. Acid Yellow-17 (1 mM) is added and Potassium Chloride can be altered from 4.5 to 20 mM depending on the NaV subtype and assay sensitivity.
6) Wash cell plates three times with 100 μL per well of Bath1, leaving 25 μL of residual volume. Then transfer 25 uL per well from Compound Plates to Cell Plates. Incubate for 20-35 minutes at room temp/ambient condition
7) Read Plate on E-VIPR. Use the current-controlled amplifier to deliver stimulation wave pulses for typically 9 seconds and a scan rate of 400 Hz. A pre-stimulus recording is performed for 0.5 seconds to obtain the un-stimulated intensities baseline. […]
For `CCc1ccc(C(=O)N2CCC3(CC2)C[C@@H](OC(C)C)c2ccccc2O3)cc1OC` [Compound 50], the IC50 is no more than 2 µM. As to `COc1cc(C(=O)N2CCC3(CC2)Oc2ccccc2CC3OC(C)C)ccc1OC(C)C` (stereo not drawn) [Compound 51], the IC50 was no more than 2 µM.

In the case of `CC(C)O[C@@H]1CC2(CCN(C(=O)c3ccc(N4CCOCC4)cn3)CC2)Oc2ccc(F)cc21` [Compound 52], the IC50 was no more than 2 µM. Turning to `CC(C)O[C@@H]1CC2(CCN(C(=O)c3ccc(SC(C)C)cc3)CC2)Oc2ccc(F)cc21` [Compound 53], the IC50 is no more than 2 µM. Turning to `CC(C)O[C@@H]1CC2(CCN(C(=O)c3ccc(N4CCCCC4C)cn3)CC2)Oc2ccc(F)cc21` (stereo partly drawn) [Compound 54], the IC50 is no more than 2 µM. Consider `CC(C)Oc1ccc(C(=O)N2CCC3(CC2)C[C@@H](OC(C)C)c2cc(F)ccc2O3)c(OC(F)F)c1` [Compound 55], for which the IC50 is no more than 2 µM. Regarding `CCOCC1CC2(CCN(C(=O)c3ccc(OC(C)C)c(OC)c3)CC2)Oc2ccccc21` (stereo not drawn) [Compound 56], the IC50 was no more than 2 µM. The value for `COc1cc(C(=O)N2CCC3(CC2)C[C@@H](OC(C)C)c2ccccc2O3)ccc1C(C)(C)O` [Compound 57] was no more than 2 µM. The value for `CC(C)O[C@@H]1CC2(CCN(C(=O)c3ccc(S(=O)(=O)CC4CCC4)cn3)CC2)Oc2ccc(F)cc21` [Compound 58] was no more than 2 µM; that for `CC(C)O[C@@H]1CC2(CCN(C(=O)c3ccc(S(=O)(=O)C(C)(C)C)cc3)CC2)Oc2ccc(F)cc21` [Compound 59] was no more than 2 µM; that for `COc1cc(C(=O)N2CCC3(CC2)CC(OC(C)C)c2ccccc2O3)ccc1C(C)(C)C` (stereo not drawn) [Compound 60] was no more than 2 µM.

Turning to `CC1CCN(c2ccc(C(=O)N3CCC4(CC3)C[C@@H](OC(C)C)c3cc(F)ccc3O4)nc2)CC1` [Compound 61], the IC50 is no more than 2 µM.

On to `COc1cc(C(=O)N2CCC3(CC2)CC(OC(C)C)c2ccccc2O3)ccc1C(C)(C)CO` (stereo not drawn) [Compound 62], for which the IC50 was no more than 2 µM.

Regarding `COc1cc(C(=O)N2CCC3(CC2)CC(COC(F)F)c2ccccc2O3)ccc1OC(C)C` (stereo not drawn) [Compound 63], the IC50 was no more than 2 µM. Regarding `CC[C@H](C)Nc1ccc(C(=O)N2CCC3(CC2)C[C@@H](OC(C)C)c2cc(F)ccc2O3)nc1` [Compound 64], the IC50 was no more than 2 µM. The value for `CC(C)O[C@H]1CC2(CCN(C(=O)c3ccc4[nH]ncc4c3)CC2)Oc2ccccc21` [Compound 65] was 2 to 5 µM. For the compound `CC[C@@H](C)Nc1ccc(C(=O)N2CCC3(CC2)C[C@@H](OC(C)C)c2cc(F)ccc2O3)nc1` [Compound 66], the IC50 was no more than 2 µM. With `CC(C)O[C@@H]1CC2(CCN(C(=O)c3ccc(N4CCC[C@@H]4C)cn3)CC2)Oc2ccc(F)cc21` [Compound 67], the IC50 is no more than 2 µM.

Regarding `CC(C)O[C@@H]1CC2(CCN(C(=O)c3ccc(S(=O)(=O)C(C)C)cc3)CC2)Oc2ccc(F)cc21` [Compound 68], the IC50 is no more than 2 µM. The result for `COc1nc(C)ccc1C(=O)N1CCC2(CC1)C[C@@H](OC(C)C)c1ccccc1O2` [Compound 69] reads no more than 2 µM; that for `COc1cc(C(=O)N2CCC3(CC2)C[C@@H](OC(C)C)c2ccccc2O3)ccc1OC(F)F` [Compound 70], 2 to 5 µM; that for `COc1cc(C(=O)N2CCC3(CC2)C[C@H](OC(C)C)c2ccccc2O3)ccc1C(C)(C)CO` [Compound 71], no more than 2 µM.

For `Cc1cc(C(=O)N2CCC3(CC2)C[C@@H](OC(C)C)c2ccccc2O3)ccc1OC(C)C` [Compound 72], the 50% inhibitory concentration (IC50) was no more than 2 µM. The value for `CC(C)Oc1ccc(C(=O)N2CCC3(CC2)C[C@@H](OC(C)C)c2ccccc2O3)c(F)c1` [Compound 74] was no more than 2 µM; that for `CC(C)O[C@@H]1CC2(CCN(C(=O)c3ccc(N4CCC[C@H]4C)cn3)CC2)Oc2ccc(F)cc21` [Compound 75] was no more than 2 µM; that for `CC(C)Oc1ccc(C(=O)N2CCC3(CC2)CC(OC(C)C)c2ccccc2O3)cc1C#N` (stereo not drawn) [Compound 76] was no more than 2 µM.

Regarding `Cc1cc(C(=O)N2CCC3(CC2)C[C@H](O)c2cc(F)ccc2O3)ccc1OC(C)C` [Compound 77], the IC50 is no more than 2 µM. As to `CC(C)OC1CC2(CCN(C(=O)c3ccc(S(=O)(=O)C(C)C)cc3)CC2)Oc2c(F)cccc21` (stereo not drawn) [Compound 78], the IC50 is no more than 2 µM. As to `COc1cc(C(=O)N2CCC3(CC2)C[C@@H](OC(C)C)c2cc(F)ccc2O3)ccc1OC(F)F` [Compound 79], the IC50 was no more than 2 µM. On to `Cc1nc(C(=O)N2CCC3(CC2)C[C@@H](OC(C)C)c2ccccc2O3)ccc1OC(C)C` [Compound 80], for which the IC50 was no more than 2 µM.

Take `COc1cc(C(=O)N2CCC3(CC2)CC(OC(C)C)c2ccccc2S3(=O)=O)ccc1OC(C)C` (stereo not drawn) [Compound 81]: the IC50 was no more than 2 µM. The value for `CC(C)O[C@@H]1CC2(CCN(C(=O)c3ccc(S(=O)(=O)C4CC4)cc3)CC2)Oc2ccc(F)cc21` [Compound 82] was no more than 2 µM; that for `COc1cc(C(=O)N2CCC3(CC2)CC(CSC)c2ccccc2O3)ccc1OC(C)C` (stereo not drawn) [Compound 83] was no more than 2 µM; that for `COc1cc(C(=O)N2CCC3(CC2)CC(OC(C)C)c2cccnc2O3)ccc1OC(C)C` (stereo not drawn) [Compound 84] was no more than 2 µM. Consider `Cc1cc(S(C)(=O)=O)ccc1C(=O)N1CCC2(CC1)C[C@@H](OC(C)C)c1cc(F)ccc1O2` [Compound 85], for which the IC50 lay in the range of 2 to 5 µM.

In the case of `COc1cc(C(=O)N2CCC3(CC2)CC(OCCS(C)(=O)=O)c2ccccc2O3)ccc1OC(C)C` (stereo not drawn) [Compound 86], the IC50 is greater than 5 µM. Take `Cc1cc(C(F)F)n2ncc(C(=O)N3CCC4(CC3)C[C@@H](OC(C)C)c3ccccc3O4)c2n1` [Compound 87]: the IC50 was no more than 2 µM. As to `CC(C)OC1CC2(CCN(C(=O)c3ccccc3OC(F)F)CC2)Oc2ccccc21` (stereo not drawn) [Compound 88], the IC50 was no more than 2 µM. The result for `Cc1cc(C(=O)N2CCC3(CC2)CC(OC(C)C)c2cnccc2O3)ccc1OC(C)C` (stereo not drawn) [Compound 89] reads 2 to 5 µM; that for `Cc1cc(C(=O)N2CCC3(CC2)CC(OC(C)C)c2cccc(F)c2O3)ccc1S(=O)(=O)C(C)C` (stereo not drawn) [Compound 90], no more than 2 µM; that for `CC(C)Oc1ccc(C(=O)N2CCC3(CC2)C[C@@H](OC(C)C)c2ccccc2O3)cc1O` [Compound 91], no more than 2 µM. The value for `Cc1cc(C(=O)N2CCC3(CC2)C[C@@H](OC(C)C)c2cc(F)ccc2O3)ccc1OC1COC1` [Compound 92] was no more than 2 µM; that for `CCC1COCCN1c1ccc(C(=O)N2CCC3(CC2)C[C@@H](OC(C)C)c2cc(F)ccc2O3)nc1` (stereo partly drawn) [Compound 93] was no more than 2 µM; that for `COc1cc(C(=O)N2CCC3(CC2)Oc2ccccc2C(OC(C)C)C3C)ccc1OC(C)C` (stereo not drawn) [Compound 94] was no more than 2 µM. The value for `CC(C)O[C@@H]1CC2(CCN(C(=O)c3ccc(N4CC5CC4CO5)cn3)CC2)Oc2ccc(F)cc21` (stereo partly drawn) [Compound 95] was no more than 2 µM; that for `Cc1cc(C(=O)N2CCC3(CCc4ccccc4O3)CC2)ccc1OC(C)C` [Compound 96] was no more than 2 µM; that for `CC(C)O[C@@H]1CC2(CCN(C(=O)c3ccc(N(C)CCN(C)C)cn3)CC2)Oc2ccc(F)cc21` [Compound 97] was greater than 5 µM. As for `COc1cc(C(=O)N2CCC3(CC2)C[C@@H](O)c2cc(F)ccc2O3)ccc1OC(C)C` [Compound 98], the half-inhibitory concentration (IC50) is no more than 2 µM.
